Results taken from ChEMBL document CHEMBL1201862, “PubChem BioAssay data set” (2004).
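Interpolation was linear, between the two tested concentrations surrounding the appropriate level; five concentrations were tested over 48 hours in 96-well plates. Abbreviation: GI50, concentration required for 50% inhibition of growth.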 Activity calls are given as the source filed them. No stated cut-off is given here; in the data, active = GI50 up to about 1.1 µM and inactive = higher.

Legend:
Assay in all cases: DTP human tumour cell line panel, 48 h
IGROV-1 = tested on: IGROV-1
NCI-H226 = tested on: NCI-H226
SK-MEL-5 = tested on: SK-MEL-5
CAKI-1 = tested on: CAKI-1
HL-60 = tested on: HL-60
SR = tested on: SR
KM12 = tested on: KM12
DU-145 = tested on: DU-145
BT-549 = tested on: BT-549
SN12C = tested on: SN12C
UACC-257 = tested on: UACC-257
UACC-62 = tested on: UACC-62
T47D = tested on: T47D
A549 = tested on: A549
UO-31 = tested on: UO-31
MDA-MB-231 = tested on: MDA-MB-231
M14 = tested on: M14
NCI/ADR-RES = tested on: NCI/ADR-RES
MDA-MB-435 = tested on: MDA-MB-435
Hs-578T = tested on: Hs-578T

Row | SMILES | GI50 (IGROV-1) | GI50 (NCI-H226) | GI50 (SK-MEL-5) | GI50 (CAKI-1) | GI50 (HL-60) | GI50 (SR) | GI50 (KM12) | GI50 (DU-145) | GI50 (BT-549) | GI50 (SN12C) | GI50 (UACC-257) | GI50 (UACC-62) | GI50 (T47D) | GI50 (A549) | GI50 (UO-31) | GI50 (MDA-MB-231) | GI50 (M14) | GI50 (NCI/ADR-RES) | GI50 (MDA-MB-435) | GI50 (Hs-578T)
1 | Cc1cnc2nc(-c3cccc4ccccc34)cc(O)c2c1 | 0.00552 µM (active) | 0.01 µM (active) | 0.000359 µM (active) | 0.000646 µM (active) | 0.000232 µM (active) | 0.000352 µM (active) | 0.000551 µM (active) | 0.00394 µM (active) | 0.0536 µM (active) | 0.00869 µM (active) | 0.000254 µM (active) | 0.000518 µM (active) | 26 µM (inactive) | 0.0014 µM (active) | 0.00242 µM (active) | 0.00493 µM (active) | 0.000711 µM (active) | 0.000428 µM (active) | 0.000211 µM (active) | 0.00107 µM (active)
2 | Nc1cccc(/C=C/C(=O)N2CCN(CCOC(c3ccccc3)c3ccccc3)CC2)c1 | 18.2 µM (inactive) | 20.9 µM (inactive) | 15.9 µM (inactive) | 18.6 µM (inactive) | 11.2 µM (inactive) | 14.4 µM (inactive) | 17 µM (inactive) | 15.1 µM (inactive) | 15 µM (inactive) | 17.5 µM (inactive) | 17.7 µM (inactive) | 16.1 µM (inactive) | 13.1 µM (inactive) | 16.6 µM (inactive) | 16.9 µM (inactive) | 15.7 µM (inactive) | 13.2 µM (inactive) | 17.3 µM (inactive) | 16.3 µM (inactive) | 21 µM (inactive)
3 | CN(C)C(=S)Oc1ccc2ccc(=O)oc2c1 | > 100 µM (inactive) | > 100 µM (inactive) | > 100 µM (inactive) | > 100 µM (inactive) | > 100 µM (inactive) | > 100 µM (inactive) | > 100 µM (inactive) | > 100 µM (inactive) | > 100 µM (inactive) | > 100 µM (inactive) | > 100 µM (inactive) | > 100 µM (inactive) | > 100 µM (inactive) | > 100 µM (inactive) | > 100 µM (inactive) | > 100 µM (inactive) | > 100 µM (inactive) | > 100 µM (inactive) | > 100 µM (inactive) | > 100 µM (inactive)
4 | COC(=O)[C@H]1[C@@H](C(C)C)O[C@@H](C(C)C)O[C@H]1C(F)(F)F | 37.9 µM (inactive) | > 100 µM (inactive) | > 100 µM (inactive) | > 100 µM (inactive) | > 100 µM (inactive) | > 100 µM (inactive) | > 100 µM (inactive) | > 100 µM (inactive) | > 100 µM (inactive) | > 100 µM (inactive) | > 100 µM (inactive) | > 100 µM (inactive) | > 100 µM (inactive) | > 100 µM (inactive) | > 100 µM (inactive) | > 100 µM (inactive) | > 100 µM (inactive) | > 100 µM (inactive) | > 100 µM (inactive) | > 100 µM (inactive)
5 | C=C(C)CNC(=S)N(N)c1ccc2ccccc2c1 | 11.4 µM (inactive) | > 100 µM (inactive) | > 100 µM (inactive) | – | 57.3 µM (inactive) | > 100 µM (inactive) | 13.6 µM (inactive) | > 100 µM (inactive) | > 100 µM (inactive) | > 100 µM (inactive) | > 100 µM (inactive) | 23.9 µM (inactive) | 24.2 µM (inactive) | > 100 µM (inactive) | 61.1 µM (inactive) | > 100 µM (inactive) | > 100 µM (inactive) | 78 µM (inactive) | 72.3 µM (inactive) | > 100 µM (inactive)
6 | CC1(C)CCC2=C(O1)/C(=N\Nc1ccc(F)cc1)c1ccccc1C2=O | 31.9 µM (inactive) | > 100 µM (inactive) | 8.91 µM (inactive) | 40.4 µM (inactive) | 16 µM (inactive) | 21.9 µM (inactive) | 31.3 µM (inactive) | 18.4 µM (inactive) | 41.9 µM (inactive) | 32.3 µM (inactive) | 17.3 µM (inactive) | 14.7 µM (inactive) | 17.3 µM (inactive) | 16.1 µM (inactive) | 38.2 µM (inactive) | 46.7 µM (inactive) | 20.1 µM (inactive) | 71.8 µM (inactive) | 18.1 µM (inactive) | 28.4 µM (inactive)
7 | Cc1cc(NS(=O)(=O)c2ccc(NC(=O)c3cccc4c(NNc5ccc(S(=O)(=O)N=C(N)N)cc5)c5ccccc5nc34)cc2)no1 | 45.6 µM (inactive) | 25.2 µM (inactive) | 44.7 µM (inactive) | > 100 µM (inactive) | 26.7 µM (inactive) | 35.8 µM (inactive) | 36 µM (inactive) | 51.5 µM (inactive) | 57.8 µM (inactive) | 70.3 µM (inactive) | > 100 µM (inactive) | 42.9 µM (inactive) | 34.6 µM (inactive) | > 100 µM (inactive) | 54.2 µM (inactive) | 44.2 µM (inactive) | > 100 µM (inactive) | > 100 µM (inactive) | 92.9 µM (inactive) | 27.4 µM (inactive)
8 | CC(C)N(C(=O)c1ccc(NCc2cc(O)ccc2O)cc1)C(C)C | 17.7 µM (inactive) | 17.2 µM (inactive) | 14.6 µM (inactive) | 14.2 µM (inactive) | 2.26 µM (inactive) | > 100 µM (inactive) | – | 16.4 µM (inactive) | 11.9 µM (inactive) | 18.2 µM (inactive) | 17.4 µM (inactive) | 14.2 µM (inactive) | 11.8 µM (inactive) | 26.2 µM (inactive) | 9.44 µM (inactive) | 14.3 µM (inactive) | 17.2 µM (inactive) | 14.8 µM (inactive) | 17.1 µM (inactive) | 26.2 µM (inactive)
9 | COC1OC(COC(=O)NCCCCC(=O)C(F)(F)F)C(O)C(O)C1O (stereo not drawn) | > 100 µM (inactive) | – | > 100 µM (inactive) | > 100 µM (inactive) | > 100 µM (inactive) | > 100 µM (inactive) | > 100 µM (inactive) | > 100 µM (inactive) | > 100 µM (inactive) | > 100 µM (inactive) | > 100 µM (inactive) | > 100 µM (inactive) | > 100 µM (inactive) | > 100 µM (inactive) | > 100 µM (inactive) | > 100 µM (inactive) | > 100 µM (inactive) | > 100 µM (inactive) | > 100 µM (inactive) | > 100 µM (inactive)
10 | CC(=O)N1c2ccccc2C2=NN(C)C(=N)SC21 (stereo not drawn) | – | > 100 µM (inactive) | – | – | 89.5 µM (inactive) | > 100 µM (inactive) | > 100 µM (inactive) | > 100 µM (inactive) | > 100 µM (inactive) | > 100 µM (inactive) | > 100 µM (inactive) | – | 29.9 µM (inactive) | > 100 µM (inactive) | 28 µM (inactive) | > 100 µM (inactive) | > 100 µM (inactive) | > 100 µM (inactive) | 89.3 µM (inactive) | > 100 µM (inactive)
